The target of test [1] is STK32B/YANK2 (Homo sapiens, UniProt Q9NY57). Put plainly: biochemical. Conditions: read-out: % enzyme activity, 1 μM; Run 1, Run 2.
Test [2] deals with SLK/STK2 (Homo sapiens, UniProt Q9H2G2). Put plainly: biochemical. Conditions: read-out: % enzyme activity, 1 μM; Run 1, Run 2.
Test [3] concerns the target ERK1 (Homo sapiens, UniProt P27361). The following applies: 1 μM; Run 1, Run 2.
For test [4], the target named is PKCeta (Homo sapiens, UniProt P24723). The experiment in a line: biochemical. Conditions: read-out: % enzyme activity, 1 μM; Run 1, Run 2.
The target of test [5] is T1, ULK3 (Homo sapiens, UniProt Q6PHR2).
T1 sequence (Q6PHR2 1-472): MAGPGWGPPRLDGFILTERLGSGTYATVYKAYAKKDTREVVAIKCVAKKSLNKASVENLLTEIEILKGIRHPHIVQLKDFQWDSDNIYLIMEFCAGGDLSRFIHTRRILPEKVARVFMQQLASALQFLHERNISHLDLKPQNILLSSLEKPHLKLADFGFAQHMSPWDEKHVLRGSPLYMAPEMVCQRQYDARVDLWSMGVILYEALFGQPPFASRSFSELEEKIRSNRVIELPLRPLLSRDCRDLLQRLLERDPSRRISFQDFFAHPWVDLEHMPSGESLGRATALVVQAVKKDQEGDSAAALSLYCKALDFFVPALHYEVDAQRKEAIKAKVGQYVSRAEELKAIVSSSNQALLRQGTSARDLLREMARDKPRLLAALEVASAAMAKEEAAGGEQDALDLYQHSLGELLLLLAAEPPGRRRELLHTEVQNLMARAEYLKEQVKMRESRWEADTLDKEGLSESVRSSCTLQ
The following applies: 1 μM; Run 1, Run 2.

Test [6] has as its target T2, TBK1 (Homo sapiens, UniProt Q9UHD2).
T2 sequence (Q9UHD2 1-729): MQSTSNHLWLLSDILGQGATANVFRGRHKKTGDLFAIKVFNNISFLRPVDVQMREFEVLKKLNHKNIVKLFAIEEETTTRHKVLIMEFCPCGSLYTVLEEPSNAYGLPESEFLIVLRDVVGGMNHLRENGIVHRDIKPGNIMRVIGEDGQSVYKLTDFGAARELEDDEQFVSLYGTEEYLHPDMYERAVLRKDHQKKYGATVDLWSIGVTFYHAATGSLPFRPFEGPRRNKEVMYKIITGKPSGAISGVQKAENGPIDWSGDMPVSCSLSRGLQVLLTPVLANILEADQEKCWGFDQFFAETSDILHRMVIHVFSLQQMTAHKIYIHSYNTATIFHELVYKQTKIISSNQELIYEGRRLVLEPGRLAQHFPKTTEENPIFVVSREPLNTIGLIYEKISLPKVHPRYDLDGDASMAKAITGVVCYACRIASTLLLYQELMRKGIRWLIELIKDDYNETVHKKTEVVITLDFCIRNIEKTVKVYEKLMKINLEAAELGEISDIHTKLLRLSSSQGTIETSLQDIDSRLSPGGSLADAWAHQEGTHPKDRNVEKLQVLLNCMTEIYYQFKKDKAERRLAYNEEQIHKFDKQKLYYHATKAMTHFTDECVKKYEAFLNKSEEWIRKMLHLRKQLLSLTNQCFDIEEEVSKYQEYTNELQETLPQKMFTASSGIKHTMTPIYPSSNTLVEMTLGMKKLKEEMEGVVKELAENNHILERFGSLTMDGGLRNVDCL
The following applies: 1 μM; Run 1, Run 2.

Test [7] deals with FGFR1 (Homo sapiens, UniProt P11362). Put plainly: biochemical. The following applies: read-out: % enzyme activity, 1 μM; Run 1, Run 2.
Test [8] deals with FGFR3 (Homo sapiens, UniProt P22607). The following applies: 1 μM; Run 1, Run 2.
Test [9] has as its target MST3/STK24 (Homo sapiens, UniProt Q9Y6E0). The experiment in a line: biochemical. The following applies: read-out: % enzyme activity, 1 μM; Run 1, Run 2.
The target in test [10] is T3, SGK3/SGKL (Homo sapiens, UniProt Q96BR1).
T3 sequence (Q96BR1 1-496): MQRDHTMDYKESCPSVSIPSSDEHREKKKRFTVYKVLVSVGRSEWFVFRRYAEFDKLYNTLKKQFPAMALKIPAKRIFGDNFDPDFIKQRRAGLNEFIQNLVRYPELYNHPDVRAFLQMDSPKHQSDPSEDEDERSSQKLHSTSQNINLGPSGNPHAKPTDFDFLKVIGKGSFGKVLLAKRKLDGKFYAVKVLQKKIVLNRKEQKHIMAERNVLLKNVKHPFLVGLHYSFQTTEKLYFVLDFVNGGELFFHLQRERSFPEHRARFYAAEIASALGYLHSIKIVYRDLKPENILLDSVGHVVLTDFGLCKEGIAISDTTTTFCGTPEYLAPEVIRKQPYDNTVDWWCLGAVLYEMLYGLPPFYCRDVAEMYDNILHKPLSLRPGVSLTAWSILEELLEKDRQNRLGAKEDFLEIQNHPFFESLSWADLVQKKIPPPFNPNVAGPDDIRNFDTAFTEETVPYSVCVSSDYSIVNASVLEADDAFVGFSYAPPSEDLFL
The following applies: 1 μM; Run 1, Run 2.

Test [11] concerns the target PKCtheta (Homo sapiens, UniProt Q04759). Conditions: 1 μM; Run 1, Run 2.
Test [12] has as its target MAST3 (Homo sapiens, UniProt O60307). Put plainly: biochemical. The following applies: read-out: % enzyme activity, 1 μM; Run 1, Run 2.

Chain of PKCeta (P24723 whole entry): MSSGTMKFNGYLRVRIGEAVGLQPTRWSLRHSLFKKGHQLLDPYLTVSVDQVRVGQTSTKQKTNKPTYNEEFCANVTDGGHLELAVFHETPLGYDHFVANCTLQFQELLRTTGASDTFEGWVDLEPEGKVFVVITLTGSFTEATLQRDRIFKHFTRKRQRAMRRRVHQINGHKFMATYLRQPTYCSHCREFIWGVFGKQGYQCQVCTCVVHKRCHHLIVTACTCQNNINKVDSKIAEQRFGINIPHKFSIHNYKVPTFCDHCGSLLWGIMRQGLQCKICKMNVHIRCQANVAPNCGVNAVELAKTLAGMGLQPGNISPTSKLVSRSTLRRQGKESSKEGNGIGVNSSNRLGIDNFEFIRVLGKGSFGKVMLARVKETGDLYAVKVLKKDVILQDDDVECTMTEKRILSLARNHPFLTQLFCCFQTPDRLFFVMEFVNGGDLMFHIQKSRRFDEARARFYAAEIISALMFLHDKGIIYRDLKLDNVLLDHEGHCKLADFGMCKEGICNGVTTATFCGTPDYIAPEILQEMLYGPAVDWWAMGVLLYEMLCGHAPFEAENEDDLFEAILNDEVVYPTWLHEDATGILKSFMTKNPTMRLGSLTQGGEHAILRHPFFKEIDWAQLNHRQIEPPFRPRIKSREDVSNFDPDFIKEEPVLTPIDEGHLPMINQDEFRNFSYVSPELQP
Chain of MAST3 (O60307 whole entry): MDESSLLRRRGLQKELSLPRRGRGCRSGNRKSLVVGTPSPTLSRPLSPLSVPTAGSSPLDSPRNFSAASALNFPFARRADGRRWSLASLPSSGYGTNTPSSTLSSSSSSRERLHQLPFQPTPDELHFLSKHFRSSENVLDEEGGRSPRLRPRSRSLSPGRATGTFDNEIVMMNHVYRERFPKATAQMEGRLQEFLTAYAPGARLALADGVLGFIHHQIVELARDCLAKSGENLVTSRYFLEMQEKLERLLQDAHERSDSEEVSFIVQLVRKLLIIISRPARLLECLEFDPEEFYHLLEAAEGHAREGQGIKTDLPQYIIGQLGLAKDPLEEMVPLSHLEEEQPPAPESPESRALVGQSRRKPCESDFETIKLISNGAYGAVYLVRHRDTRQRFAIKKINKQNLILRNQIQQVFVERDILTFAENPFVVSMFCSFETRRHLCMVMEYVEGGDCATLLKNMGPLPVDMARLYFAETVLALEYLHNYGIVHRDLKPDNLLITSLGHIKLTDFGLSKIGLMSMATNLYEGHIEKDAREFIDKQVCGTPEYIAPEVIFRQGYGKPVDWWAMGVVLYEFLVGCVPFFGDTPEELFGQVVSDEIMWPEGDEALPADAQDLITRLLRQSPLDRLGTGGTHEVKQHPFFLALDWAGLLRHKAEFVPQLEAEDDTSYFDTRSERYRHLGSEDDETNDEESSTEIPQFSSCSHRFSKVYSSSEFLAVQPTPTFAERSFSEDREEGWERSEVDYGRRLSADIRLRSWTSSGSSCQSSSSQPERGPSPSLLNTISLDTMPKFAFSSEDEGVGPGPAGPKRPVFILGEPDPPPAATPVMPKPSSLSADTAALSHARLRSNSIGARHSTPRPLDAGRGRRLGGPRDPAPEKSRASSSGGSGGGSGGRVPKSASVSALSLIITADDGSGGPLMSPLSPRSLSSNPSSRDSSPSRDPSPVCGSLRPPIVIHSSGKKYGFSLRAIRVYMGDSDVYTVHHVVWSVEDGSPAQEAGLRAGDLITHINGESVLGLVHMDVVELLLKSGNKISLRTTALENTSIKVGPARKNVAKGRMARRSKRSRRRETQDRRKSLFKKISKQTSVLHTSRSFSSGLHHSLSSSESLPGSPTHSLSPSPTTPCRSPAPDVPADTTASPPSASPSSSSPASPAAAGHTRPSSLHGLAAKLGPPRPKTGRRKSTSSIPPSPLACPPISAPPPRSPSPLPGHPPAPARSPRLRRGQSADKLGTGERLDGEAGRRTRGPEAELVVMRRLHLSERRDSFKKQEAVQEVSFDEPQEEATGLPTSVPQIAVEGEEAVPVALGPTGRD
Chain of MST3/STK24 (Q9Y6E0 whole entry): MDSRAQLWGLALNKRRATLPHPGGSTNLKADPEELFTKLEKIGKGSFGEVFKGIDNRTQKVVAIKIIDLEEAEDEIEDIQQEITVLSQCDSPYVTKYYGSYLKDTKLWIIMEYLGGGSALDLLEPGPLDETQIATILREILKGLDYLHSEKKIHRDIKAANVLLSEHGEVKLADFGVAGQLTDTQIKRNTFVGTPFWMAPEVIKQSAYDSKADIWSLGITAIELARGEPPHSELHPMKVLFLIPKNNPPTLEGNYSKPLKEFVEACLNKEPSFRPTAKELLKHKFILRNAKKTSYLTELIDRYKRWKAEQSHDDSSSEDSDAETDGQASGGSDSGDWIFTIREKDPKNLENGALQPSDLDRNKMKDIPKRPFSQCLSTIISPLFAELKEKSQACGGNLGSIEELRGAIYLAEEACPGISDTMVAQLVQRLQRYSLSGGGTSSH
Chain of FGFR3 (P22607 23-806): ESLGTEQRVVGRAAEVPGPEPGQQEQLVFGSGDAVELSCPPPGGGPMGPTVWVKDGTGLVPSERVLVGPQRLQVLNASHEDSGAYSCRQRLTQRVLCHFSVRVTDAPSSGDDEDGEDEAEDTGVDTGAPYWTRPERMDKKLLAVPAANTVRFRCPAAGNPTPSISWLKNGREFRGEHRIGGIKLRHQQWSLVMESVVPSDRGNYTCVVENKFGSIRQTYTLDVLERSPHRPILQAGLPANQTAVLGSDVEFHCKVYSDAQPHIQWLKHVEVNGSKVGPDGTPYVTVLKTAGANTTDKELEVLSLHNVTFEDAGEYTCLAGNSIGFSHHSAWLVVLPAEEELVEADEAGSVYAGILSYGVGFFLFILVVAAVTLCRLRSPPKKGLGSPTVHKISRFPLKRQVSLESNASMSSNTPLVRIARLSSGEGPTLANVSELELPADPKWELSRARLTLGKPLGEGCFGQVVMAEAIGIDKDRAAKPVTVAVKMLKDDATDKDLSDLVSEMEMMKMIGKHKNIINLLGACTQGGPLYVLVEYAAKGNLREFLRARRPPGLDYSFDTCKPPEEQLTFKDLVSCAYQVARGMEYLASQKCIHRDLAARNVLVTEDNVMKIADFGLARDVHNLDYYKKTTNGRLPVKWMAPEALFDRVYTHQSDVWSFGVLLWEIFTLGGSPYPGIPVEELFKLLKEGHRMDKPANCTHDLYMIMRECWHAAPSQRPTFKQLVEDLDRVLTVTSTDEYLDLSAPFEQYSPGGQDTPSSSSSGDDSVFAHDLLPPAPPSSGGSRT
Chain of FGFR1 (P11362 22-822): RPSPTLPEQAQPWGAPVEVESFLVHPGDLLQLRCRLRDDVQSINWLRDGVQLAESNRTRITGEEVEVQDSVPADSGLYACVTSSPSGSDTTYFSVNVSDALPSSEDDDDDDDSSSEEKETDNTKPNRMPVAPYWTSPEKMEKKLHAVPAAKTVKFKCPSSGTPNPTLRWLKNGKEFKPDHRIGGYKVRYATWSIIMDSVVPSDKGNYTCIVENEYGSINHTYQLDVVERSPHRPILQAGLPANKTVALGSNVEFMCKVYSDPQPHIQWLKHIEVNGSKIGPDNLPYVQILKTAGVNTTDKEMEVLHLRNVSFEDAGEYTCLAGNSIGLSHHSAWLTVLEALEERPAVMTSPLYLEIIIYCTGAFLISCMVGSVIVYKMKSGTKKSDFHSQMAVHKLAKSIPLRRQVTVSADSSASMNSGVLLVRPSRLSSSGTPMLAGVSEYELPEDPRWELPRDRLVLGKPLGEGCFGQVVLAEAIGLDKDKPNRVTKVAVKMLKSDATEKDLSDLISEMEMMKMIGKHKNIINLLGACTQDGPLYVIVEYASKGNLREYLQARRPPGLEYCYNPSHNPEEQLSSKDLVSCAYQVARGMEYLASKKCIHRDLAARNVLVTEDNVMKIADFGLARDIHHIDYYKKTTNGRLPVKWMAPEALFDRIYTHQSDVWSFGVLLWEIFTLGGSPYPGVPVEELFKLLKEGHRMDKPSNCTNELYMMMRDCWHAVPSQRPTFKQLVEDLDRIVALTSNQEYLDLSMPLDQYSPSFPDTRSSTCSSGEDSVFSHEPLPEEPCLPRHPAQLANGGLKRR
Chain of ERK1 (P27361 whole entry): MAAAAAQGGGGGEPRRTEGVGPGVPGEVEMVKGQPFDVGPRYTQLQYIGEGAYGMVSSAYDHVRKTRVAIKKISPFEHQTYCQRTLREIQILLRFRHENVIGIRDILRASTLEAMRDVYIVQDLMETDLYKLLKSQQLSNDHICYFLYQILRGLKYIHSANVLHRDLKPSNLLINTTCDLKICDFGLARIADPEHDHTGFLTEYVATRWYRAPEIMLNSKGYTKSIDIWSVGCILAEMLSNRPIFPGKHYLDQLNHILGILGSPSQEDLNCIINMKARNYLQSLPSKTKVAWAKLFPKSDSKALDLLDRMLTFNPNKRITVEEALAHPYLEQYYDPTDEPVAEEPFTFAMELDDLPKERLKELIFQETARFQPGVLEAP
Chain of STK32B/YANK2 (Q9NY57 whole entry): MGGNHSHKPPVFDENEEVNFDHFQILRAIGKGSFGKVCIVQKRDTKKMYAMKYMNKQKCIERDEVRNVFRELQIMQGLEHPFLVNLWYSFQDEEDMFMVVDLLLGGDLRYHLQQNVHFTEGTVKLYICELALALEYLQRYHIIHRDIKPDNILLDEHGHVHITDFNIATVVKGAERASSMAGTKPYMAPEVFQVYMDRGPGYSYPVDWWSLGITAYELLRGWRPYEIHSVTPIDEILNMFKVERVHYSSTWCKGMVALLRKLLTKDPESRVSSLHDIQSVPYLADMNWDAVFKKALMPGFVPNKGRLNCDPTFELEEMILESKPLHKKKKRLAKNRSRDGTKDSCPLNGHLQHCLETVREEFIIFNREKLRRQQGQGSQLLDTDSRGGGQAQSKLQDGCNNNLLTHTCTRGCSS

With `COc1cc(-c2cncc(-c3ccc(N4C[C@@H](C)N(C)[C@@H](C)C4)cc3)c2C)cc(F)c1C(N)=O` [Compound 26c, 2-Fluoro-6-methoxy-4-(4-methyl-5-(4-((3R,5S)-3,4,5-trimethylpiperazin-1-yl)phenyl)pyridin-3-yl)benzamide], the remaining activity at 1 µM in test [1] came to 98.2%; in test [2], 101%; in test [4], 98.3%; in test [7], 101%; in test [9], 96.3%; in test [12], 95.5%. Moreover, the “% enzyme activity” value in test [3] is 94.56%; in test [5] it was 97.24%; in test [6] it was 85.62%; in test [8] it was 102.08%; in test [10], 93.33%; in [11], 84.96%.

As for `COc1cc(-c2cncc(-c3ccc(N4CCN(C)CC4)cc3)c2C)cc(F)c1C(N)=O` [Compound 26a, 2-Fluoro-6-methoxy-4-(4-methyl-5-(4-(4-methylpiperazin-1-yl)phenyl)pyridin-3-yl)benzamide], the remaining activity at 1 µM in [1] came to 87.6%; in test [2], 100%; in [4] it was 94.9%; in test [7] it was 97.4%; in test [9] it was 90.2%; in test [12] it was 94.7%. For the same molecule, the “% enzyme activity” value in test [3] came to 94.73%; in test [5], 91.23%; in [6], 92.56%; in [8] it was 100.98%; in test [10], 99.35%; in [11] it was 81.31%.
